Values after ≈ are worked out from the molar mass of the structure shown. Active and inactive are the calls of the source. No cut-off for these calls is given here.
Tests used:
Staphylococcus aureus [1] = assay: Antibacterial activity against methicillin-sensitive Staphylococcus aureus ATCC 25923 at 256 ug/ml after 24 hrs by disc diffusion method; type: functional, organism-based
Staphylococcus aureus [2] = assay: Antibacterial activity against methicillin-resistant Staphylococcus aureus ATCC 43300 at 256 ug/ml after 24 hrs by disc diffusion method; type: functional, organism-based
Staphylococcus aureus [3] = assay: microbe, parasite or virus in culture; settings: ATCC 25923, 24 h, read-out: DIZ
Description: Antibacterial activity against methicillin-sensitive Staphylococcus aureus ATCC 25923 at 5 ug/ml after 24 hrs by disc diffusion method

Staphylococcus aureus [4] = assay: microbe, parasite or virus in culture; settings: ATCC 43300, 24 h, read-out: DIZ
Description: Antibacterial activity against methicillin-resistant Staphylococcus aureus ATCC 43300 at 5 ug/ml after 24 hrs by disc diffusion method

Staphylococcus aureus [5] = assay: Antibacterial activity against methicillin-sensitive Staphylococcus aureus ATCC 25923 after 24 hrs by microdilution method; type: functional
Staphylococcus aureus [6] = assay: Antibacterial activity against methicillin-resistant Staphylococcus aureus ATCC 43300 after 24 hrs by microdilution method; type: functional
Staphylococcus aureus [7] = assay: Antibacterial activity against methicillin-sensitive Staphylococcus aureus ATCC 25923 at 30 ug/ml after 24 hrs by disc diffusion method; type: functional; settings: ATCC 25923, 24 h, read-out: DIZ
Staphylococcus aureus [8] = assay: Antibacterial activity against methicillin-resistant Staphylococcus aureus ATCC 43300 at 30 ug/ml after 24 hrs by disc diffusion method; type: functional; settings: ATCC 43300, 24 h, read-out: DIZ
Staphylococcus aureus [9] = assay: Antibacterial activity against methicillin-resistant Staphylococcus aureus ATCC 43300 after 24 hrs by microdilution method in presence of non-beta lactam antibiotic Doxycycline; type: functional
Staphylococcus aureus [10] = assay: Antibacterial activity against methicillin-sensitive Staphylococcus aureus ATCC 25923 at 102.4 mg/ml after 24 hrs by disc diffusion method; type: functional; settings: ATCC 25923, 24 h, read-out: DIZ
Staphylococcus aureus [11] = assay: Antibacterial activity against methicillin-resistant Staphylococcus aureus ATCC 43300 after 24 hrs by microdilution method in presence of non-beta lactam antibiotic ciprofloxacin; type: functional
Staphylococcus aureus [12] = assay: Antibacterial activity against methicillin-resistant Staphylococcus aureus ATCC 43300 at 102.4 mg/ml after 24 hrs by disc diffusion method; type: functional; settings: ATCC 43300, 24 h, read-out: DIZ
Staphylococcus aureus [13] = assay: Antibacterial activity against methicillin-sensitive Staphylococcus aureus ATCC 25923 after 24 hrs by microdilution method in presence of non-beta lactam antibiotic Doxycycline; type: functional
Staphylococcus aureus [14] = assay: Antibacterial activity against methicillin-sensitive Staphylococcus aureus ATCC 25923 after 24 hrs by microdilution method in presence of non-beta lactam antibiotic gentamycin; type: functional
Staphylococcus aureus [15] = assay: Antibacterial activity against methicillin-resistant Staphylococcus aureus ATCC 43300 after 24 hrs by microdilution method in presence of non-beta lactam antibiotic gentamycin; type: functional
Staphylococcus aureus [16] = assay: Antibacterial activity against methicillin-sensitive Staphylococcus aureus ATCC 25923 after 24 hrs by microdilution method in presence of non-beta lactam antibiotic ciprofloxacin; type: functional
Staphylococcus aureus [17] = assay: Antibacterial activity against methicillin-resistant Staphylococcus aureus ATCC 43300 at 2 ug/disc after 24 hrs by disc diffusion method; type: functional, organism-based
Staphylococcus aureus [18] = assay: Antibacterial activity against methicillin-sensitive Staphylococcus aureus ATCC 25923 at 2 ug/ml after 24 hrs by disc diffusion method; type: functional; settings: ATCC 25923, 24 h, read-out: DIZ
Staphylococcus aureus [19] = assay: Antibacterial activity against methicillin-resistant Staphylococcus aureus ATCC 43300 at 15 ug/disc after 24 hrs by disc diffusion method; type: functional, organism-based
Staphylococcus aureus [20] = assay: Antibacterial activity against methicillin-sensitive Staphylococcus aureus ATCC 25923 at 15 ug/ml after 24 hrs by disc diffusion method; type: functional; settings: ATCC 25923, 24 h, read-out: DIZ

Row | Compound | diameter of the inhibition zone (DIZ) (Staphylococcus aureus [1]) | diameter of the inhibition zone (DIZ) (Staphylococcus aureus [2]) | further results
1 | COc1cccc(/C=C/C(=O)c2ccccc2)c1OC | inactive | inactive | 
2 | COc1ccccc1/C=C/C(=O)c1ccccc1O | inactive | inactive | 
3 | O=C(O)c1cn(C2CC2)c2cc(N3CCNCC3)c(F)cc2c1=O [CIPROFLOXACIN] |  |  | zone of inhibition at 5 µg/mL (Staphylococcus aureus [3]): 27 mm; zone of inhibition at 5 µg/mL (Staphylococcus aureus [4]): 21 mm; MIC (Staphylococcus aureus [5]; ATCC 25923, 24 h): 0.25 µg/mL (≈ 0.754 µM); MIC (Staphylococcus aureus [6]; ATCC 43300, 24 h): 0.5 µg/mL (≈ 1.51 µM)
4 | O=C(N[C@H](CO)[C@H](O)c1ccc([N+](=O)[O-])cc1)C(Cl)Cl [CHLORAMPHENICOL] |  |  | zone of inhibition at 30 µg/mL (Staphylococcus aureus [7]): 25 mm; zone of inhibition at 30 µg/mL (Staphylococcus aureus [8]): 26 mm
5 | COc1ccc(/C=C/C(=O)c2ccc(OC)cc2O)cc1 | inactive | inactive | 
6 | O=C(/C=C/c1ccccc1O)c1ccccc1 |  |  | fractional inhibitory concentration index (FICI) (Staphylococcus aureus [9]): 0.15; zone of inhibition at 102400 µg/mL (Staphylococcus aureus [10]): 11 mm; fractional inhibitory concentration index (FICI) (Staphylococcus aureus [11]): 0.75; MIC (Staphylococcus aureus [5]; ATCC 25923, 24 h): 32 µg/mL (≈ 143 µM); zone of inhibition at 102400 µg/mL (Staphylococcus aureus [12]): 11 mm; MIC (Staphylococcus aureus [6]; ATCC 43300, 24 h): 64 µg/mL (≈ 285 µM); fractional inhibitory concentration index (FICI) (Staphylococcus aureus [13]): 0.31
7 | O=C(/C=C/c1ccccc1O)c1ccccc1O |  |  | fractional inhibitory concentration index (FICI) (Staphylococcus aureus [14]): 0.36; fractional inhibitory concentration index (FICI) (Staphylococcus aureus [15]): 0.5; fractional inhibitory concentration index (FICI) (Staphylococcus aureus [16]): 1.5; fractional inhibitory concentration index (FICI) (Staphylococcus aureus [9]): 0.15; zone of inhibition at 102400 µg/mL (Staphylococcus aureus [10]): 14 mm; fractional inhibitory concentration index (FICI) (Staphylococcus aureus [11]): 0.62; MIC (Staphylococcus aureus [5]; ATCC 25923, 24 h): 64 µg/mL (≈ 266 µM); zone of inhibition at 102400 µg/mL (Staphylococcus aureus [12]): 14 mm; MIC (Staphylococcus aureus [6]; ATCC 43300, 24 h): 64 µg/mL (≈ 266 µM); fractional inhibitory concentration index (FICI) (Staphylococcus aureus [13]): 0.25
8 | O=C(/C=C/c1ccc(O)cc1)c1ccccc1 [4-HYDROXYCHALCONE] |  |  | fractional inhibitory concentration index (FICI) (Staphylococcus aureus [16]): 0.31; fractional inhibitory concentration index (FICI) (Staphylococcus aureus [9]): 0.62; zone of inhibition at 102400 µg/mL (Staphylococcus aureus [10]): 10 mm; fractional inhibitory concentration index (FICI) (Staphylococcus aureus [11]): 0.25; MIC (Staphylococcus aureus [5]; ATCC 25923, 24 h): 64 µg/mL (≈ 285 µM); zone of inhibition at 102400 µg/mL (Staphylococcus aureus [12]): 9 mm; MIC (Staphylococcus aureus [6]; ATCC 43300, 24 h): 32 µg/mL (≈ 143 µM)
9 | COc1ccc2cc3[n+](cc2c1OC)CCc1cc2c(cc1-3)OCO2 [BERBERINE] |  |  | MIC (Staphylococcus aureus [6]; ATCC 43300, 24 h): 128 µg/mL
10 | O=C(/C=C/c1ccc(Cl)cc1)c1ccccc1O | inactive | inactive | 
11 | COc1ccc(C(=O)/C=C/c2ccc(Cl)cc2)c(O)c1 | inactive | inactive | 
12 | COc1cc(/C=C/C(=O)c2ccccc2O)cc(OC)c1OC | inactive | inactive | 
13 | COc1ccc(/C=C/C(=O)c2ccccc2O)c(OC)c1 | inactive | inactive | 
14 | COc1ccccc1/C=C/C(=O)c1ccccc1 | inactive | inactive | 
15 | COc1ccc(C(=O)/C=C/c2cc(OC)c(OC)c(OC)c2)c(O)c1 | inactive | inactive | 
16 | GENTAMICIN |  |  | MIC (Staphylococcus aureus [5]): 1 µg/mL; MIC (Staphylococcus aureus [6]): 4 µg/mL
17 | COc1cccc(/C=C/C(=O)c2ccc(Br)cc2)c1OC | inactive | inactive | 
18 | O=C(/C=C/c1ccccc1)c1ccccc1 | inactive | inactive | 
19 | COc1ccc(C(=O)/C=C/c2ccc(OC)cc2OC)c(O)c1 | inactive | inactive | 

Row | Compound | diameter of the inhibition zone (DIZ) (Staphylococcus aureus [1]) | diameter of the inhibition zone (DIZ) (Staphylococcus aureus [2]) | further results
20 | COc1ccc(/C=C/C(=O)c2ccccc2)cc1OC | inactive | inactive | 
21 | COc1ccc(C(=O)/C=C/c2ccccc2)c(O)c1 | inactive | inactive | 
22 | COc1ccc(/C=C/C(=O)c2ccccc2)cc1 | inactive | inactive | 
23 | COc1ccc(/C=C/C(=O)c2ccc(Br)cc2)cc1OC | inactive | inactive | 
24 | O=C(/C=C/c1ccc(Cl)c(Cl)c1)c1ccccc1O | inactive | inactive | 
25 | COc1ccc(/C=C/C(=O)c2ccccc2O)cc1 | inactive | inactive | 
26 | COc1ccc(/C=C/C(=O)c2ccccc2O)cc1OC | inactive | inactive | 
27 | COc1cccc(/C=C/C(=O)c2ccc(Br)cc2)c1 | inactive | inactive | 
28 | O=C(/C=C/c1ccccc1)c1ccc(Br)cc1 | inactive | inactive | 
29 | C[C@H]1c2cccc(O)c2C(=O)C2=C(O)[C@]3(O)C(=O)C(C(N)=O)=C(O)[C@@H](N(C)C)[C@@H]3[C@@H](O)[C@@H]21.O [DOXYCYCLINE] |  |  | zone of inhibition at 30 µg/mL (Staphylococcus aureus [7]): 27 mm; zone of inhibition at 30 µg/mL (Staphylococcus aureus [8]): 27 mm; MIC (Staphylococcus aureus [5]; ATCC 25923, 24 h): 8 µg/mL; MIC (Staphylococcus aureus [6]; ATCC 43300, 24 h): 4 µg/mL
30 | CN[C@H](CC(C)C)C(=O)N[C@H]1C(=O)N[C@@H](CC(N)=O)C(=O)N[C@H]2C(=O)N[C@H]3C(=O)N[C@H](C(=O)N[C@H](C(=O)O)c4cc(O)cc(O)c4-c4cc3ccc4O)[C@H](O)c3ccc(c(Cl)c3)Oc3cc2cc(c3O[C@@H]2O[C@H](CO)[C@@H](O)[C@H](O)[C@H]2O[C@H]2C[C@](C)(N)[C@H](O)[C@H](C)O2)Oc2ccc(cc2Cl)[C@H]1O [VANCOMYCIN] |  |  | zone of inhibition at 30 µg/mL (Staphylococcus aureus [7]): 17 mm; zone of inhibition at 30 µg/mL (Staphylococcus aureus [8]): 16 mm; MIC (Staphylococcus aureus [6]; ATCC 43300, 24 h): 8 µg/mL (≈ 5.52 µM)
31 | CCC[C@@H]1C[C@@H](C(=O)N[C@@H]([C@H]2O[C@H](SC)[C@H](O)[C@@H](O)[C@H]2O)[C@H](C)Cl)N(C)C1 [CLINDAMYCIN] |  |  | diameter of the inhibition zone (DIZ) (Staphylococcus aureus [17]): inactive; zone of inhibition at 2 µg/mL (Staphylococcus aureus [18]): 24 mm
32 | COc1ccc(/C=C/C(=O)c2ccc(Br)cc2)cc1 | inactive | inactive | 
33 | CC[C@H]1OC(=O)[C@H](C)[C@@H](O[C@H]2C[C@@](C)(OC)[C@@H](O)[C@H](C)O2)[C@H](C)[C@@H](O[C@@H]2O[C@H](C)C[C@H](N(C)C)[C@H]2O)[C@](C)(O)C[C@@H](C)C(=O)[C@H](C)[C@@H](O)[C@]1(C)O [ERYTHROMYCIN] |  |  | diameter of the inhibition zone (DIZ) (Staphylococcus aureus [19]): inactive; zone of inhibition at 15 µg/mL (Staphylococcus aureus [20]): 25 mm
34 | O=C(/C=C/c1ccccc1)c1ccccc1O | inactive | inactive | 
35 | COc1ccc(C(=O)/C=C/c2ccc(OC)c(OC)c2)c(O)c1 | inactive | inactive | 
36 | COc1ccccc1/C=C/C(=O)c1ccc(Br)cc1 | inactive | inactive | 
37 | O=C(/C=C/c1ccccc1O)c1ccc(Br)cc1 |  |  | fractional inhibitory concentration index (FICI) (Staphylococcus aureus [9]): 0.62; zone of inhibition at 102400 µg/mL (Staphylococcus aureus [10]): 13 mm; MIC (Staphylococcus aureus [5]; ATCC 25923, 24 h): 32 µg/mL (≈ 106 µM); zone of inhibition at 102400 µg/mL (Staphylococcus aureus [12]): 13 mm; MIC (Staphylococcus aureus [6]; ATCC 43300, 24 h): 64 µg/mL (≈ 211 µM); fractional inhibitory concentration index (FICI) (Staphylococcus aureus [13]): 0.37
38 | COc1ccc(C(=O)/C=C/c2ccc(Cl)c(Cl)c2)c(O)c1 | inactive | inactive | 

— ChEMBL document CHEMBL2046424, “Synthesis and anti Methicillin resistant Staphylococcus aureus activity of substituted chalcones alone and in combination with non-beta-lactam antibiotics” (2012)
